Measured values as given in patent US10190119B2, “Mitochondrial phosphate carrier targets for treating soft-tissue calcification” (THE BRIGHAM AND WOMEN'S HOSPITAL, INC., priority 2014, dated 2019).

System: calcifying extracellular vesicles (EVs)
Test: Aggregation of calcifying extracellular vesicles in a particle counting device
Details: 100 μM NEM, vesicles from smooth muscle cells cultured in calcifying conditions, cell-free, 37° C., FIG. 5
Method: Calcification has been previously linked to aggregation of extracellular vesicles. Therefore, vesicles were collected from smooth muscle cells cultured in calcifying conditions and incubated in cell-free conditions at 37° C. within a particle counting device. […] Aggregation of calcifying vesicles was observed by a reduction in total particles counted from 8 h to 20 h of incubation, as shown in FIG. 5. […] Without wishing to be bound by theory, it is hypothesized that this reduction is due to the inhibition of phosphate carriers on the vesicles, which blocks phosphate transport into the vesicles, and in turn preventing mineral formation.

CCN1C(=O)C=CC1=O [NEM, N-ethylmaleimide]
reduction in total particles (vesicle counts) from 8 h to 20 h of incubation: mitigated the reduction in vesicle counts
